Measured values as given in patent US20100298141A1, “SUBSTITUTED PYRIDINE N-OXIDE HERBICIDES” (E. I. DU PONT DE NEMOURS AND COMPANY, priority 2007, published 2010).

Key:
[1] = tested on: corn; assay: Test A pre-/postemergence greenhouse test; format: in vivo, Zea mays; conditions: for Plant response rating, Corn: 0 to 100 scale where 0 is no effect and 100 is complete control; for Corn plant response rating: 0 to 100 scale
Summary of the method: (§1)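 Greenhouse herbicide screen, pre- and postemergence in parallel. Soil: loam plus sand. Formulation: non-phytotoxic solvent mix with surfactant. Postemergence stage: one to two leaves, 2–10 cm height. Evaluation: visual injury, compared with untreated controls, about 10 days after treatment.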

[2] = tested on: giant foxtail; assay: Test A pre-/postemergence greenhouse test; format: in vivo, Setaria faberi; conditions: for Plant response rating, Foxtail, Giant: 0 to 100 scale where 0 is no effect and 100 is complete control; for Foxtail, Giant plant response rating: 0 to 100 scale
Summary of the method: as §1

[3] = tested on: rice; assay: Test C flooded paddy test; format: in vivo, Oryza sativa; conditions: Flood
Text: (§2) At time of treatment, test pots were flooded to 3 cm above the soil surface, treated by application of test compounds directly to the paddy water, and then maintained at that water depth for the duration of the test. Treated plants and controls were maintained in a greenhouse for 13 to 15 days, after which time all species were compared to controls and visually evaluated. […] A dash (-) response means no test result.

[4] = tested on: barnyardgrass; assay: Test C flooded paddy test; format: in vivo, Echinochloa crus-galli; conditions: Flood
Text: as §2

[5] = tested on: barnyardgrass; assay: Test A pre-/postemergence greenhouse test; format: in vivo, Echinochloa crus-galli; conditions: for Plant response rating, Barnyardgrass: 0 to 100 scale where 0 is no effect and 100 is complete control; for Barnyardgrass plant response rating: 0 to 100 scale
Summary of the method: as §1

[6] = tested on: velvetleaf; assay: Test A pre-/postemergence greenhouse test; format: in vivo, Abutilon theophrasti; conditions: for Plant response rating, Velvetleaf: 0 to 100 scale where 0 is no effect and 100 is complete control; for Velvetleaf plant response rating: 0 to 100 scale
Summary of the method: as §1

[7] = tested on: redroot pigweed; assay: Test A pre-/postemergence greenhouse test; format: in vivo, Amaranthus retroflexus; conditions: for Plant response rating, Pigweed: 0 to 100 scale where 0 is no effect and 100 is complete control; for Pigweed plant response rating: 0 to 100 scale
Summary of the method: as §1

[8] = tested on: morningglory; assay: Test A pre-/postemergence greenhouse test; format: in vivo, Ipomoea spp.; conditions: for Plant response rating, Morningglory: 0 to 100 scale where 0 is no effect and 100 is complete control; for Morningglory plant response rating: 0 to 100 scale
Summary of the method: as §1

[9] = tested on: umbrella sedge; assay: Test C flooded paddy test; format: in vivo, Cyperus difformis; conditions: Flood
Text: as §2

[10] = tested on: wheat; assay: Test A pre-/postemergence greenhouse test; format: in vivo, Triticum aestivum; conditions: for Plant response rating, Wheat: 0 to 100 scale where 0 is no effect and 100 is complete control; for Wheat plant response rating: 0 to 100 scale
Summary of the method: as §1

[11] = tested on: duck salad; assay: Test C flooded paddy test; format: in vivo, Heteranthera limosa; conditions: Flood
Text: as §2

[12] = tested on: crabgrass; assay: Test A pre-/postemergence greenhouse test; format: in vivo, Digitaria sanguinalis; conditions: for Plant response rating, Crabgrass, Large: 0 to 100 scale where 0 is no effect and 100 is complete control; for Crabgrass, Large plant response rating: 0 to 100 scale
Summary of the method: as §1

[13] = Postemergence, 500 g ai/ha, 0 is no effect, 100 is complete control
[14] = Preemergence, 125 g ai/ha, 0 no effect, 100 complete control
[15] = 31 g ai/ha, scale 0 to 100 (0 no effect, 100 complete control)
[16] = 62 g ai/ha, scale 0 to 100, 0 no effect, 100 complete control, 13 to 15 days
[17] = 125 g ai/ha, scale 0 to 100, 0 no effect, 100 complete control, 13 to 15 days
[18] = 250 g ai/ha, scale 0 to 100, 0 no effect, 100 complete control, 13 to 15 days
[19] = 62 g ai/ha, scale 0 to 100 (0 no effect, 100 complete control)

Cn1nc(C(F)(F)F)c(CS(=O)(=O)c2ccc(F)c[n+]2[O-])c1Cl [Compound 53]
Plant response rating, Corn ([1]; Postemergence, 125 g ai/ha): 0 | Corn plant response rating [1, 13]: 0 | Corn plant response rating [1, 14]: 0 | Plant response rating, Corn ([1]; Preemergence, 500 g ai/ha): 0 | Plant response rating, Foxtail, Giant ([2]; Postemergence, 125 g ai/ha): 80 | Foxtail, Giant plant response rating [2, 13]: 90 | Foxtail, Giant plant response rating [2, 14]: 60 | Plant response rating, Foxtail, Giant ([2]; Preemergence, 500 g ai/ha): 80 | Plant response rating, Rice [3, 15]: 0 | Plant response rating, Rice [3, 16]: 25 | Plant response rating, Rice [3, 17]: 60 | Plant response rating, Rice [3, 18]: 75 | Plant response rating, Barnyardgrass [4, 15]: 0 | Plant response rating, Barnyardgrass [4, 16]: 0 | Plant response rating, Barnyardgrass [4, 17]: 60 | Plant response rating, Barnyardgrass [4, 18]: 80 | Plant response rating, Barnyardgrass ([5]; Postemergence, 125 g ai/ha): 60 | Barnyardgrass plant response rating [5, 13]: 80 | Barnyardgrass plant response rating [5, 14]: 50 | Plant response rating, Barnyardgrass ([5]; Preemergence, 500 g ai/ha): 80 | Plant response rating, Velvetleaf ([6]; Postemergence, 125 g ai/ha): 0 | Velvetleaf plant response rating [6, 13]: 0 | Velvetleaf plant response rating [6, 14]: 0 | Plant response rating, Velvetleaf ([6]; Preemergence, 500 g ai/ha): 0 | Plant response rating, Pigweed ([7]; Postemergence, 125 g ai/ha): 20 | Pigweed plant response rating [7, 13]: 50 | Pigweed plant response rating [7, 14]: 100 | Plant response rating, Pigweed ([7]; Preemergence, 500 g ai/ha): 100 | Plant response rating, Morningglory ([8]; Postemergence, 125 g ai/ha): 20 | Morningglory plant response rating [8, 13]: 30 | Morningglory plant response rating [8, 14]: 30 | Plant response rating, Morningglory ([8]; Preemergence, 500 g ai/ha): 70 | Plant response rating, Sedge, Umbrella [9, 15]: 20 | Plant response rating, Sedge, Umbrella [9, 17]: 80 | Plant response rating, Sedge, Umbrella [9, 18]: 90 | Plant response rating, Wheat ([10]; Postemergence, 125 g ai/ha): 0 | Wheat plant response rating [10, 13]: 0 | Wheat plant response rating [10, 14]: 0 | Plant response rating, Wheat ([10]; Preemergence, 500 g ai/ha): 0 | Plant response rating, Ducksalad [11, 15]: 20 | Plant response rating, Ducksalad [11, 16]: 60 | Plant response rating, Ducksalad [11, 17]: 100 | Plant response rating, Ducksalad [11, 18]: 100 | Plant response rating, Crabgrass, Large ([12]; Postemergence, 125 g ai/ha): 40 | Crabgrass, Large plant response rating [12, 13]: 80 | Crabgrass, Large plant response rating [12, 14]: 60 | Plant response rating, Crabgrass, Large ([12]; Preemergence, 500 g ai/ha): 90

Cn1nc(C(F)(F)F)c(C[S+]([O-])c2cc(C(C)(C)C)cc[n+]2[O-])c1OCC(F)(F)F (racemic) [Compound 61]
Plant response rating, Corn ([1]; Postemergence, 125 g ai/ha): 30 | Corn plant response rating [1, 13]: 70 | Corn plant response rating [1, 14]: 0 | Plant response rating, Corn ([1]; Preemergence, 500 g ai/ha): 50 | Plant response rating, Foxtail, Giant ([2]; Postemergence, 125 g ai/ha): 50 | Foxtail, Giant plant response rating [2, 13]: 70 | Foxtail, Giant plant response rating [2, 14]: 100 | Plant response rating, Foxtail, Giant ([2]; Preemergence, 500 g ai/ha): 100 | Plant response rating, Rice [3, 19]: 20 | Plant response rating, Rice [3, 18]: 50 | Plant response rating, Barnyardgrass [4, 19]: 30 | Plant response rating, Barnyardgrass [4, 18]: 30 | Plant response rating, Barnyardgrass ([5]; Postemergence, 125 g ai/ha): 30 | Barnyardgrass plant response rating [5, 13]: 80 | Barnyardgrass plant response rating [5, 14]: 0 | Plant response rating, Barnyardgrass ([5]; Preemergence, 500 g ai/ha): 100 | Plant response rating, Velvetleaf ([6]; Postemergence, 125 g ai/ha): 0 | Velvetleaf plant response rating [6, 13]: 70 | Velvetleaf plant response rating [6, 14]: 0 | Plant response rating, Velvetleaf ([6]; Preemergence, 500 g ai/ha): 100 | Plant response rating, Pigweed ([7]; Postemergence, 125 g ai/ha): 40 | Pigweed plant response rating [7, 13]: 60 | Pigweed plant response rating [7, 14]: 80 | Plant response rating, Pigweed ([7]; Preemergence, 500 g ai/ha): 100 | Plant response rating, Morningglory ([8]; Postemergence, 125 g ai/ha): 0 | Morningglory plant response rating [8, 13]: 70 | Morningglory plant response rating [8, 14]: 60 | Plant response rating, Morningglory ([8]; Preemergence, 500 g ai/ha): 100 | Plant response rating, Sedge, Umbrella [9, 19]: 0 | Plant response rating, Sedge, Umbrella [9, 18]: 100 | Plant response rating, Wheat ([10]; Postemergence, 125 g ai/ha): 50 | Wheat plant response rating [10, 13]: 60 | Wheat plant response rating [10, 14]: 50 | Plant response rating, Wheat ([10]; Preemergence, 500 g ai/ha): 100 | Plant response rating, Ducksalad [11, 19]: 0 | Plant response rating, Ducksalad [11, 18]: 90 | Plant response rating, Crabgrass, Large ([12]; Postemergence, 125 g ai/ha): 30 | Crabgrass, Large plant response rating [12, 13]: 60 | Crabgrass, Large plant response rating [12, 14]: 70 | Plant response rating, Crabgrass, Large ([12]; Preemergence, 500 g ai/ha): 100
